Calls of active or inactive are those of the source. The rule behind the calls is not given here.

We go through three molecules from ChEMBL document CHEMBL1154493, “Oxidative inactivation of protein tyrosine phosphatase 1B by organic hydroperoxides” (Bioorg Med Chem Lett, 2008).

The target in assay [1] is T1, Tyrosine-protein phosphatase non-receptor type 1 (Homo sapiens) (UniProt P18031).
T1 sequence (whole entry): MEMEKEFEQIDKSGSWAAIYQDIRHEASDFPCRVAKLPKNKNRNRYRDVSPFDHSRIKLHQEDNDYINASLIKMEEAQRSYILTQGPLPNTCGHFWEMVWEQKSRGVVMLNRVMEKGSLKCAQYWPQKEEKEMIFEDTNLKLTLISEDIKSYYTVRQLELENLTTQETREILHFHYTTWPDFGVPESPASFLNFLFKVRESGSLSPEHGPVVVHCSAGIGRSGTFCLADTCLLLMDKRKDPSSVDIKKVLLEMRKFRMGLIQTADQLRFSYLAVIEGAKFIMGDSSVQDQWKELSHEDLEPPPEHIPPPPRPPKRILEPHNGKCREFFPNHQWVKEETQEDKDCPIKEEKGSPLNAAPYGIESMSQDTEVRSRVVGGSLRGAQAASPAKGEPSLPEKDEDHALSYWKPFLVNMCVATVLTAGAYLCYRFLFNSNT
The assay is described as follows: Inactivation of PTP1B at 150 nM.

For assay [2], the target named is T2, Tyrosine-protein phosphatase non-receptor type 1 (Homo sapiens, UniProt P18031).
T2 sequence (P18031 whole entry): T1 sequence (whole entry)
Put plainly: Inhibition of PTP1B.

Assay [3] addresses T1, Tyrosine-protein phosphatase non-receptor type 1 (Homo sapiens). Put plainly: Inactivation of PTP1B assessed as return of enzyme activity at 5 uM after 10 mins in presence of dithiothreitol.
For assay [4] the target is unchanged. Put plainly: Inactivation of PTP1B assessed as return of enzyme activity at 800 nM for 10 mins in presence of dithiothreitol.
For assay [5] the target is unchanged. Put plainly: Inactivation of PTP1B at 15 uM after 15 sec.
Assay [6] has the same target. Put plainly: Inactivation of PTP1B at 15 uM after 15 sec in presence of glutathione.
For assay [7] the target is unchanged. Put plainly: Inactivation of PTP1B at 15 uM after 15 sec in presence of phosphate ion.

`O=C(O)c1ccccc1C(=O)OO`: the result in assay [1] was Active.

Take `O=C(OO)c1cccc(Cl)c1`: the result in assay [1] was Active.

In general, Ki refers to the equilibrium dissociation constant of an inhibitor or competing ligand from its target. Read a high Ki as lower affinity. `CC(=O)OO` [ETHANEPEROXOIC ACID]: the Ki in assay [2] was found to be 17 mM. Besides, the Activity in assay [3] was determined as 10%; in assay [4], 73%; in assay [5] it was 88%; in assay [6], 29%; in assay [7] it was 49%.
